Measurements from US11872262B2, “Means and methods for treating bacterial infections” (VIB VZW, priority 2017, dated 2024).
Residues, ends and D or L forms follow the SMILES beside them. *: point of attachment. FITC = O=C1OC2(c3ccc(O)cc3Oc3cc(O)ccc32)c2ccc(NC(=S)*)cc21

How the values were obtained:
[1] = Biodistribution study in healthy animals; assay type: in vivo, mice; details: single dose of 10 mg/kg, IP or urinary tract
Method: FIG. 7: Fluorescence imaging of organs ex vivo 3 h after a single injection (10 mg/kg) of Colpeptin1.
Given these positive results, we then established the tolerance of the Swiss mice to the peptide by performing a dose escalation experiment. […] The parameters observed included body weight, food and water consumption, home cage activity and locomotion. […] Based on these observations, we tested the antibacterial efficacy of the colpeptin1 in a mouse bladder infection model. In this model, an inoculum of 50 μL of a 10^8 CFU/mL suspension of E. coli O157:H7 was delivered via the urethra to the bladder of healthy Swiss mice. 1 h post-infection, we administered a single injection of colpeptin1 at 10 mg/kg, either via the urethra (n=15) or intraperitoneally (n=15). 24 h after treatment, the animals were sacrificed and the bacterial titer in kidney, colon, bladder and ureter was determined by plating the macerated tissue (FIG. 2F-l).

[2] = test system: E. coli O157; assay type: cell-based, Escherichia coli; details: HPLC-grade purified peptides, E. coli O157
Method: The MICs of active peptides were determined via the Broth microdilution assay according to the EUCAST guideline, which were performed in 96-well polystyrene flat-bottom microtiter plates (BD Biosciences). Briefly, a single colony was inoculated into 5 mL LB medium and grown to the end-exponential growth phase in a shaking incubator at 37° C. Cultures were subsequently diluted to an OD600 of 0.002 ([…]) in fresh LB medium. 100 μL of LB medium with different concentration of peptides ranging from 100 μg/mL to 1 μg/mL were serially diluted to the sterile 96-well plate (at least 3 wells in each plate). Afterward, 100 μL of the diluted bacteria were pipetted into 96-well plates containing different concentration of peptides. In each plate, the grown bacteria with maximum concentration of carrier and medium were considered as positive and negative controls, respectively. Thereafter, 96-well plates was statically incubated overnight at 37° C. to allow bacterial growth. A multipurpose UV/VIS plate reader at OD590 nm, 1 s shaking measured the absorbance of the growth bacteria using a Perkin Elmer spectrophotometer (1420 Multilabel Counter Victor 3).

[3] = test system: E. coli O157:H7; assay type: cell-based, Escherichia coli; details: screening-stage peptides tested at 1, 6, 12 and 25 μg/mL
Procedure, shortened: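 Tandem-repeat aggregation-prone-region peptides from DMSO stocks were tested for growth inhibition of E. coli O157:H7 at 1, 6, 12 and 25 μg/mL.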

For `CC(C)C[C@H](NC(=O)CNC(=O)[C@H](CCCNC(=N)N)NC(=O)[C@@H]1CCCN1C(=O)[C@H](CCCNC(=N)N)NC(=O)[C@H](CCCNC(=N)N)NC(=O)[C@@H](NC(=O)[C@H](CC(C)C)NC(=O)[C@H](C)NC(=O)[C@H](CC(C)C)NC(=O)CNC(=O)[C@H](CC(C)C)NC(=O)CNC(=O)[C@H](CCCNC(=N)N)NC(=S)Nc1ccc2c(c1)C(=O)OC21c2ccc(O)cc2Oc2cc(O)ccc21)C(C)C)C(=O)NCC(=O)N[C@@H](CC(C)C)C(=O)N[C@@H](C)C(=O)N[C@@H](CC(C)C)C(=O)N[C@H](C(=O)N[C@@H](CCCNC(=N)N)C(=O)N[C@@H](CCCNC(=N)N)C(=O)O)C(C)C` [FITC-colpeptin1] ({FITC}-RGLGLALVRRPRGLGLALVRR-OH; N-terminus and C-terminus assumed), the “clearance of the peptide” value [1] was “total clearance of the peptide after 24 h” and the “duration of distribution of fluorescent material after injection” value [1] was “at least 3 h”.

In the case of `CC(C)C[C@H](NC(=O)CNC(=O)[C@H](CCCNC(=N)N)NC(=O)[C@@H]1CCCN1C(=O)[C@H](CCCNC(=N)N)NC(=O)[C@H](CCCNC(=N)N)NC(=O)[C@@H]1CCCN1C(=O)[C@H](CC(C)C)NC(=O)[C@H](C)NC(=O)[C@@H]1CCCN1C(=O)CNC(=O)[C@H](CC(C)C)NC(=O)CNC(=O)[C@@H](N)CCCNC(=N)N)C(=O)NCC(=O)N1CCC[C@H]1C(=O)N[C@@H](C)C(=O)N[C@@H](CC(C)C)C(=O)N1CCC[C@H]1C(=O)N[C@@H](CCCNC(=N)N)C(=O)N[C@@H](CCCNC(=N)N)C(=O)O` [P2 pro2] (H-RGLGPALPRRPRGLGPALPRR-OH), the MIC [2] is reported as over 100 µg/mL.

In the case of `CC(C)C[C@H](NC(=O)[C@H](C)NC(=O)[C@@H](NC(=O)[C@H](CC(C)C)NC(=O)[C@H](CCC(N)=O)NC(=O)[C@H](CCCNC(=N)N)NC(=O)[C@@H]1CCCN1C(=O)[C@H](CCCNC(=N)N)NC(=O)[C@H](CCCNC(=N)N)NC(=O)[C@@H](NC(=O)[C@H](CCCNC(=N)N)NC(=O)[C@H](CC(C)C)NC(=O)[C@H](C)NC(=O)[C@@H](NC(=O)[C@H](CC(C)C)NC(=O)[C@H](CCC(N)=O)NC(=O)[C@@H](N)CCCNC(=N)N)C(C)C)C(C)C)C(C)C)C(=O)N[C@@H](CC(C)C)C(=O)N[C@H](C(=O)N[C@@H](CCCNC(=N)N)C(=O)N[C@@H](CCCNC(=N)N)C(=O)O)C(C)C` [Peptide P117] (H-RQLVALRVRRPRQLVALLVRR-OH; N-terminus and C-terminus assumed), the “E. coli O157 (apparent MIC in screen)” value [3] is reported as 25 µg/mL.

In the case of `CC(C)C[C@H](NC(=O)[C@H](C)NC(=O)[C@H](CC(C)C)NC(=O)[C@@H](NC(=O)[C@H](C)NC(=O)[C@H](CO)NC(=O)[C@H](CCCNC(=N)N)NC(=O)[C@@H]1CCCN1C(=O)[C@H](CCCNC(=N)N)NC(=O)[C@H](CCCNC(=N)N)NC(=O)[C@H](CC(C)C)NC(=O)[C@H](CC(C)C)NC(=O)[C@H](C)NC(=O)[C@H](CCCNC(=N)N)NC(=O)[C@@H](NC(=O)[C@H](C)NC(=O)[C@H](CO)NC(=O)[C@@H](N)CCCNC(=N)N)C(C)C)C(C)C)C(=O)N[C@@H](CC(C)C)C(=O)N[C@@H](CCCNC(=N)N)C(=O)N[C@@H](CCCNC(=N)N)C(=O)O` [Peptide P118] (H-RSAVRALLRRPRSAVLALLRR-OH; N-terminus and C-terminus assumed), the “E. coli O157 (apparent MIC in screen)” value [3] is reported as 25 µg/mL.

With `CC[C@H](C)[C@H](NC(=O)[C@H](CC(C)C)NC(=O)[C@H](CC(C)C)NC(=O)[C@H](C)NC(=O)[C@H](CCCNC(=N)N)NC(=O)[C@@H]1CCCN1C(=O)[C@H](CCCNC(=N)N)NC(=O)[C@H](CCCNC(=N)N)NC(=O)[C@H](CC(C)C)NC(=O)[C@H](CC(C)C)NC(=O)[C@@H](NC(=O)[C@@H](NC(=O)[C@H](CCCNC(=N)N)NC(=O)[C@H](CC(C)C)NC(=O)[C@H](C)NC(=O)[C@@H](N)CCCNC(=N)N)[C@@H](C)CC)[C@@H](C)O)C(=O)N[C@H](C(=O)N[C@@H](CC(C)C)C(=O)N[C@@H](CC(C)C)C(=O)N[C@@H](CCCNC(=N)N)C(=O)N[C@@H](CCCNC(=N)N)C(=O)O)[C@@H](C)O` [Peptide P123] (H-RALRITLLRRPRALLITLLRR-OH; N-terminus and C-terminus assumed) the “E. coli O157 (apparent MIC in screen)” value [3] was 25 µg/mL.

With `CC(C)C[C@H](NC(=O)CNC(=O)[C@H](CCCNC(=N)N)NC(=O)[C@@H]1CCCN1C(=O)[C@H](CCCNC(=N)N)NC(=O)[C@H](CCCNC(=N)N)NC(=O)[C@H](CCC(N)=O)NC(=O)[C@H](CC(C)C)NC(=O)[C@H](C)NC(=O)[C@H](CCCNC(=N)N)NC(=O)[C@H](CC(C)C)NC(=O)[C@H](CC(C)C)NC(=O)CNC(=O)[C@@H](N)CCCNC(=N)N)C(=O)N[C@@H](CC(C)C)C(=O)N[C@@H](CC(C)C)C(=O)N[C@@H](C)C(=O)N[C@@H](CC(C)C)C(=O)N[C@@H](CCC(N)=O)C(=O)N[C@@H](CCCNC(=N)N)C(=O)N[C@@H](CCCNC(=N)N)C(=O)O` [Peptide P124] (H-RGLLRALQRRPRGLLLALQRR-OH; N-terminus and C-terminus assumed) the “E. coli O157 (apparent MIC in screen)” value [3] was 12 µg/mL.

For `CC[C@H](C)[C@H](NC(=O)[C@H](CCCNC(=N)N)NC(=O)[C@@H]1CCCN1C(=O)[C@H](CCCNC(=N)N)NC(=O)[C@H](CCCNC(=N)N)NC(=O)[C@H](CC(N)=O)NC(=O)[C@H](CC(C)C)NC(=O)[C@@H](NC(=O)[C@H](CCCNC(=N)N)NC(=O)[C@@H](NC(=O)[C@@H](NC(=O)[C@@H](NC(=O)[C@@H](N)CCCNC(=N)N)[C@@H](C)CC)C(C)C)[C@@H](C)O)[C@@H](C)O)C(=O)N[C@H](C(=O)N[C@H](C(=O)N[C@H](C(=O)N[C@H](C(=O)N[C@@H](CC(C)C)C(=O)N[C@@H](CC(N)=O)C(=O)N[C@@H](CCCNC(=N)N)C(=O)N[C@@H](CCCNC(=N)N)C(=O)O)[C@@H](C)O)C(C)C)[C@@H](C)O)C(C)C` [Peptide P125] (H-RIVTRTLNRRPRIVTVTLNRR-OH; N-terminus and C-terminus assumed), the “E. coli O157 (apparent MIC in screen)” value [3] was 25 µg/mL.
